Earlier results as cited in patent US10881615B2, “Pharmaceutical composition comprising dabigatran etexilate, and preparation method, solid preparation and use thereof” (Chia Tai Tianqing Pharmaceutical Group Co., Ltd., priority 2014, dated 2021).

Details: medium at pH of >4.0

SMILES: CCCCCCOC(=O)NC(=N)c1ccc(NCc2nc3cc(C(=O)N(CCC(=O)OCC)c4ccccn4)ccc3n2C)cc1 [dabigatran etexilate, 3-[(2-{[4-(hexyloxycarbonylamino-imino-methyl)-phenylamino]-methyl}-1-methyl-1H-benzimidazol-5-yl-carbonyl)-pyridin-2-yl-amino]-ethyl propionate]
- Solubility: almost insoluble
